Test results: US20240391862A1, “(1,4,5-TRISUBSTITUTED-1H-PYRAZOL-3-YL)OXY-2-ALKOXY ALKYL ACIDS AND THEIR DERIVATIVES, THEIR SALTS AND THEIR USE AS HERBICIDAL AGENTS” (Bayer AKtiengesellschaft, priority 2021, published 2024)

What was measured:
various unwanted plants [1] = experiment: Post-emergence effect against various unwanted plants (PO): comparative test of I-01 with compounds from WO2020/245044 (Tables 41a, 41b) and summary statements; format: in vivo; settings: comparative test
Experimental: Seeds of monocotyledonous and dicotyledonous weeds and crop plants are placed in sandy loam in plastic or organic planting pots, covered with soil and cultivated in a greenhouse under controlled growth conditions. 2 to 3 weeks after sowing, the trial plants are treated at the one-leaf stage. The compounds of the invention, formulated in the form of wettable powders (WP) or as emulsion concentrates (EC), are then sprayed onto the green parts of the plants as aqueous suspension or emulsion with addition of 0.5% additive at a water application rate of 600 l/ha (converted). After the test plants have been kept in the greenhouse under optimum growth conditions for about 3 weeks, the activity of the preparations is rated visually in comparison to untreated controls. For example, 100% activity=the plants have died, 0% activity=like control plants. […] Tables 41a and 41b below show the effects of the inventive compound (I-01) with structurally similar compounds (WO2020/245044) on various harmful plants at an application rate corresponding to 320 g/ha or less, which have been obtained by the trial procedure specified hereinafter. The inventive compound (I-01) differs here by variance of a significant structural feature from the structurally similar compound with regard to the R^2 radical. Seeds of monocotyledonous and dicotyledonous weeds and crop plants are placed in sandy loam in plastic or organic planting pots, covered with soil and cultivated in a greenhouse under controlled growth conditions. 2 to 3 weeks after sowing, the trial plants are treated at the one-leaf stage. The compounds of the invention, formulated in the form of wettable powders (WP) or as emulsion concentrates (EC), are then sprayed onto the green parts of the plants as aqueous suspension or emulsion with addition of 0.5% additive at a water application rate of 600 l/ha (converted). After the test plants have been kept in the greenhouse under optimum growth conditions for about 3 weeks, the activity of the preparations is rated visually in comparison to untreated controls. For example, 100% activity=the plants have died, 0% activity=like control plants. Effects/crop compatibilities of selected compounds (see Table 39) on various harmful plants at an application rate corresponding to 80 to 320 g/ha that have been obtained by the trial procedure specified hereinafter are shown in Tables 41a and 41b below.

various unwanted plants [2] = experiment: Pre-emergence effect against various unwanted plants (PE): comparative test of I-01 with compounds from WO2020/245044 (Tables 40a, 40b) and summary statements; format: in vivo; settings: comparative test
Text: Seeds of monocotyledonous and dicotyledonous weed plants and crop plants are placed in plastic or organic planting pots and covered with soil. The compounds of the invention, formulated in the form of wettable powders (WP) or as emulsion concentrates (EC), are then applied to the surface of the covering soil as aqueous suspension or emulsion with addition of 0.5% additive at a water application rate equivalent to 600 l/ha. After the treatment, the pots are placed in a greenhouse and kept under good growth conditions for the trial plants. After about 3 weeks, the effect of the preparations is scored visually in comparison with untreated controls as percentages. For example, 100% activity=the plants have died, 0% activity=like control plants. Tables 40a and 40b below show the effects of the inventive compound (I-01) with structurally similar compounds (from WO2020/245044) on various harmful plants at an application rate corresponding to 320 g/ha or less, which have been obtained by the trial procedure specified hereinafter. The inventive compound (I-01) differs here by variance of a significant structural feature from the structurally similar compound with regard to the R^2 radical. Seeds of monocotyledonous and dicotyledonous weed plants and crop plants are placed in plastic or organic planting pots and covered with soil. The compounds of the invention, formulated in the form of wettable powders (WP) or as emulsion concentrates (EC), are then applied to the surface of the covering soil as aqueous suspension or emulsion with addition of 0.5% additive at a water application rate equivalent to 600 l/ha. After the treatment, the pots are placed in a greenhouse and kept under good growth conditions for the trial plants. After about 3 weeks, the effect of the preparations is scored visually in comparison with untreated controls as percentages. For example, 100% activity=the plants have died, 0% activity=like control plants. Effects/crop compatibilities of selected compounds (Table 39) on various harmful plants at an application rate corresponding to 80 to 320 g/ha that have been obtained by the trial procedure specified hereinabove are shown in Tables 40a and 40b below.

| SMILES | Post-emergence effect, Effect %, ALOMY (various unwanted plants [1]; 80 g/ha) [%] | Post-emergence effect, Effect %, ALOMY (various unwanted plants [1]; 320 g/ha) [%] | Post-emergence effect, Effect %, AVEFA (various unwanted plants [1]; 80 g/ha) [%] | Post-emergence effect, Effect %, AVEFA (various unwanted plants [1]; 320 g/ha) [%] | Post-emergence effect, Effect %, ECHCG (various unwanted plants [1]; 80 g/ha) [%] | Post-emergence effect, Effect %, ECHCG (various unwanted plants [1]; 320 g/ha) [%] | Post-emergence effect, Effect %, LOLRI (various unwanted plants [1]; 80 g/ha) [%] | Post-emergence effect, Effect %, LOLRI (various unwanted plants [1]; 320 g/ha) [%] | Post-emergence effect, Effect %, SETVI (various unwanted plants [1]; 80 g/ha) [%] | Post-emergence effect, Effect %, SETVI (various unwanted plants [1]; 320 g/ha) [%] | Pre-emergence effect, Effect %, ALOMY (various unwanted plants [2]; ALOMY, 320 g/ha) [%] | Pre-emergence effect, Effect %, ECHCG (various unwanted plants [2]; 80 g/ha) [%] | Pre-emergence effect, Effect %, ECHCG (various unwanted plants [2]; 320 g/ha) [%] | Pre-emergence effect, Effect %, LOLRI (various unwanted plants [2]; 80 g/ha) [%] | Pre-emergence effect, Effect %, LOLRI (various unwanted plants [2]; 320 g/ha) [%] | Pre-emergence effect, Effect %, MATIN (various unwanted plants [2]; 80 g/ha) [%] | Pre-emergence effect, Effect %, MATIN (various unwanted plants [2]; 320 g/ha) [%] | Pre-emergence effect, Effect %, POLCO (various unwanted plants [2]; POLCO, 80 g/ha) [%] | Pre-emergence effect, Effect %, SETVI (various unwanted plants [2]; SETVI, 320 g/ha) [%] |
| --- | --- | --- | --- | --- | --- | --- | --- | --- | --- | --- | --- | --- | --- | --- | --- | --- | --- | --- | --- |
| CCCC(Oc1nn(-c2ccccc2F)c(-c2ccc(F)nc2)c1Br)C(=O)OCC (stereo not drawn) [A] | 0 | 50 | 30 | 40 | 50 | 80 | 0 | 20 | 20 | 70 | 60 | 0 | 80 | 20 | 30 | 0 | 30 | 20 | 70 |
| CCOC(=O)COc1nn(-c2ccccc2F)c(-c2ccc(F)nc2)c1Br [B] | 70 | – | 80 | – | 50 | – | 30 | – | 70 | – | – | – | – | – | – | – | – | – | – |
